Assay [1] addresses wild type PRC2 (wtPRC2) complex (Homo sapiens, UniProt O75530). Kind of assay: EED LC-MS assay (SAH production by PRC2). It counts as biochemical. To be noted: PRC2 LC-MS assay; read-out: (b) IC50 EED LC-MS Qualified. The method in brief: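 LC-MS/MS readout of SAH (d4-SAH standard) after TFA quench gives PRC2 activity, normalized to controls and fitted to dose-response for IC50. Reaction: 12 nM EZH2/SUZ12/EED/Rbap48/AEBP complex, 1 μM SAM, 1.5 μM H3[21-44] peptide, 120 min rt, 20 min compound preincubation.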

In assay [2] the test system is H3K27 methylation in G401 cell. Kind of assay: ELISA (H3K27 methylation) assay in G401 cells. The class given is cell-based, human. To be noted: Homo sapiens, G-401, H3K27 methylation ELISA, read-out: (c) IC50 ELISA Qualified. A digest of the protocol:
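IC50 from dose-response fit of percent inhibition relative to DMSO, using H3K27me3/me2 ELISA signal (ECL) normalized to histone H3. Histones HCl-extracted after 48 h compound exposure of G401 cells at up to 20 μM, 8- or 12-point 3-fold series.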
A general note: ELISA stands for enzyme-linked immunosorbent assay.

The target in assay [3] is T1, EED (1-441)-His protein (Homo sapiens, UniProt O75530).
T1 construct: 30 nM EED (1-441)-His protein
T1 sequence (O75530 whole entry): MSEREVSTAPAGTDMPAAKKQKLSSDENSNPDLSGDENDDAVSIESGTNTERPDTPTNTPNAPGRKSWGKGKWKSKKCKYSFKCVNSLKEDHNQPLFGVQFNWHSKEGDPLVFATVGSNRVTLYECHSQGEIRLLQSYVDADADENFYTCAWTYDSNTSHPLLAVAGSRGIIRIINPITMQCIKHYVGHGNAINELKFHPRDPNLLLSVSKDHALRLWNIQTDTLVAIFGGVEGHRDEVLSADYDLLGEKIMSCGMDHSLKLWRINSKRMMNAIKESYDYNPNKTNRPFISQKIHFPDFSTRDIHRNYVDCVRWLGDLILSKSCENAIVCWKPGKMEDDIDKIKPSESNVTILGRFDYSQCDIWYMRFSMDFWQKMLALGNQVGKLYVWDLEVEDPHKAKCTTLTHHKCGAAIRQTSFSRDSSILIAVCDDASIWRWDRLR
Kind of assay: EED-H3K27Me3 peptide competition binding assay by AlphaScreen. To be noted: EED-H3K27Me3 peptide competition, AlphaScreen; read-out: (a) IC50 EED Alphascreen binding Qualified. A digest of the protocol: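 Serially diluted compound (12 points, 3-fold) incubated 20 min with 30 nM EED(1-441)-His and 15 nM biotin-H3K27Me3(19-33) peptide in 25 mM HEPES pH 8, 0.02% Tween-20, 0.5% BSA. Ni-chelate acceptor/streptavidin donor beads (10 μg/mL each) added, 1 h rt dark; 615 nm emission normalized to controls, dose-response fit for IC50.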
Background: In Alpha technology, singlet oxygen from a donor bead excites a nearby acceptor bead.

wild type PRC2 (wtPRC2) complex, sequence (O75530 whole entry): as above
wild type PRC2 (wtPRC2) complex, sequence (Q15910 whole entry partner): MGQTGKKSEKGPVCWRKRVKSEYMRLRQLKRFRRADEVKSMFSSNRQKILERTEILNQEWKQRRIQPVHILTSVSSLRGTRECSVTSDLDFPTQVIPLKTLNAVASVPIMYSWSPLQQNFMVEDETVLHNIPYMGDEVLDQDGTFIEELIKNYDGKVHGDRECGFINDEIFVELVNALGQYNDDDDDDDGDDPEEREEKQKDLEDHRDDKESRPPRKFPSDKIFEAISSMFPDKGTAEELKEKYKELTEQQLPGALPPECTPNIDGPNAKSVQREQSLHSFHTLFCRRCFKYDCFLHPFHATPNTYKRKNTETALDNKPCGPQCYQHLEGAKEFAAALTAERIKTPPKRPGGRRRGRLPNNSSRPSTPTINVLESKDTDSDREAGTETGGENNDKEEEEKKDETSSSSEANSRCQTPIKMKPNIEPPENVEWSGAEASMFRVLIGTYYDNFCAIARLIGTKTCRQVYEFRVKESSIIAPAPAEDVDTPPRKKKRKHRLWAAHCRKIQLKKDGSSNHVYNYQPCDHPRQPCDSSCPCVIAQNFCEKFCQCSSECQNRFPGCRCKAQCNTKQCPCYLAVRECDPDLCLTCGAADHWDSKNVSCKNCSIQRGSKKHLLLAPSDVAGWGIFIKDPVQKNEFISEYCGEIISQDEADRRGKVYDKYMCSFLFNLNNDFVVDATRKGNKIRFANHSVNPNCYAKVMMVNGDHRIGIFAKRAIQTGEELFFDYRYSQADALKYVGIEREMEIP
wild type PRC2 (wtPRC2) complex, sequence (Q15022 whole entry partner): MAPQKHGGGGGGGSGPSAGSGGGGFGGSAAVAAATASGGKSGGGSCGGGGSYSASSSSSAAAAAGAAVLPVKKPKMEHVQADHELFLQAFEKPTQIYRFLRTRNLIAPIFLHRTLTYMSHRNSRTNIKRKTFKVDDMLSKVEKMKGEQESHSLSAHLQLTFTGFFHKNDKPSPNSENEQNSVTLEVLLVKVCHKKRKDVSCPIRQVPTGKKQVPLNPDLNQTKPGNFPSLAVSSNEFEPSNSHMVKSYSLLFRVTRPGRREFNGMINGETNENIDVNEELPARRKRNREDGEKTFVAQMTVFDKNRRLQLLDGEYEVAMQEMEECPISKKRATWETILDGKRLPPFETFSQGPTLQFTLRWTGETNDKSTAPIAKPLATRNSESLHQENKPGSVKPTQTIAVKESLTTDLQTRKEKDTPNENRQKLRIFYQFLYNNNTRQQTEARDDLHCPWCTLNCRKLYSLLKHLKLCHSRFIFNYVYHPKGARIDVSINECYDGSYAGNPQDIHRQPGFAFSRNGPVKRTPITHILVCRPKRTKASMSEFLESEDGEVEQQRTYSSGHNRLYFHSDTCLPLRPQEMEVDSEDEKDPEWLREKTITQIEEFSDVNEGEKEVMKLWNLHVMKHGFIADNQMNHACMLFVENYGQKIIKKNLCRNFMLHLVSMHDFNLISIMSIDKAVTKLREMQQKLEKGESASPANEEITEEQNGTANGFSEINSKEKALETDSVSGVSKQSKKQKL
wild type PRC2 (wtPRC2) complex, sequence (Q09028 whole entry partner): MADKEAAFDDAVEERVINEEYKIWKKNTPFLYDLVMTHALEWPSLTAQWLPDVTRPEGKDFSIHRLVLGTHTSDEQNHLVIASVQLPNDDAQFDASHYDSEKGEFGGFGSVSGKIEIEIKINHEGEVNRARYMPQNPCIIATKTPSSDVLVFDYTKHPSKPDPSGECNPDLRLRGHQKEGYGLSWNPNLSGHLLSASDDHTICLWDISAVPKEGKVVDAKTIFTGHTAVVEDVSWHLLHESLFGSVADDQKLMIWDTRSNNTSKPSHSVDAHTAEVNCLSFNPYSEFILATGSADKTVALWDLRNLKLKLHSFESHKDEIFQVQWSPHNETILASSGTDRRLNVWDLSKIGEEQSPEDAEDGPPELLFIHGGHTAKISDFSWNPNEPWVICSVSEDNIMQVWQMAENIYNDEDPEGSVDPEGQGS
wild type PRC2 (wtPRC2) complex, sequence (Q6ZN18 whole entry partner): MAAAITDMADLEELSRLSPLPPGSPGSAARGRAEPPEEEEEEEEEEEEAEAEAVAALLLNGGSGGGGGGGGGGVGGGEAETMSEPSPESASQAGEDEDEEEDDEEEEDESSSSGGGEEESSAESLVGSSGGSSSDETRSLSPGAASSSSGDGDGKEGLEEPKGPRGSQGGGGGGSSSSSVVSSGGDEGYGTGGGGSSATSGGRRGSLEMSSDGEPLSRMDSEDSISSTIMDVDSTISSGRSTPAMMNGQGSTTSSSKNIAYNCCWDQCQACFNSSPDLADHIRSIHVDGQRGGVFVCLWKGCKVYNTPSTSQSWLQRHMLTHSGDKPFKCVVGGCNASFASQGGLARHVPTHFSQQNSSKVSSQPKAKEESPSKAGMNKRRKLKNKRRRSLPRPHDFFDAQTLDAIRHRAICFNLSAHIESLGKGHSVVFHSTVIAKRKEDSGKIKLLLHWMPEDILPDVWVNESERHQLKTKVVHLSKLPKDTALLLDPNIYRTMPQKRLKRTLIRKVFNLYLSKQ

As a reminder, the IC50 is the concentration at which inhibition is half-maximal. On to `COc1cccc(F)c1CNc1ccc(-c2cc(F)ncc2C)c2nncn12` [Example 279, 8-(2-fluoro-5-methylpyridin-4-yl)-N-(2-fluoro-6-methoxybenzyl)-[1,2,4] triazolo[4,3-a]pyridin-5-amine], for which the IC50 came out at 75.1 nM in assay [1], 12.1 nM in assay [2] and 15.8 nM in assay [3].
The corresponding values for `CCc1ncncc1-c1ccc(NCc2c(F)cccc2OC)n2cnnc12` [Example 280, 8-(4-ethylpyrimidin-5-yl)-N-(2-fluoro-6-methoxybenzyl)-[1,2,4]triazolo[4,3-a]pyridin-5-amine] are 317 nM, 11.8 nM and 23.7 nM.
As to `COc1cccc(F)c1CNc1ccc(-c2cc(C(F)(F)F)ncc2C)c2nncn12` [Example 281, N-(2-fluoro-6-methoxybenzyl)-8-(5-methyl-2-(trifluoromethyl)pyridin-4-yl)-[1,2,4]triazolo[4,3-a] pyridin-5-amine], the IC50 in assay [1] was found to be 124 nM; in assay [2], 16.9 nM; in assay [3], 23 nM.
As to `COc1cccc(F)c1CNc1ccc(-c2cn(C(C)C)nc2C)c2nncn12` [Example 282, N-(2-fluoro-6-methoxybenzyl)-8-(1-isopropyl-3-methyl-1H-pyrazol-4-yl)-[1,2,4]triazolo[4,3-a]pyridin-5-amine], the IC50 worked out at 15.7 nM in assay [1], 8.1 nM in assay [2] and 10.7 nM in assay [3].
For `CCc1ncccc1-c1ccc(NCc2c(F)cccc2OC)n2cnnc12` [Example 283, 8-(2-ethylpyridin-3-yl)-N-(2-fluoro-6-methoxybenzyl)-[1,2,4]triazolo[4,3-a]pyridin-5-amine], the half-maximal inhibitory concentration (IC50) was 576 nM in assay [1], 62.1 nM in assay [2] and 39.6 nM in assay [3].
Take `COc1cccc(F)c1CNc1ccc(-c2cnc(C3CC3)nc2C)c2nncn12` [Example 284, 8-(2-cyclopropyl-4-methylpyrimidin-5-yl)-N-(2-fluoro-6-methoxybenzyl)-[1,2,4] triazolo[4,3-a]pyridin-5-amine]: the IC50 was 44.4 nM in assay [1], 10.5 nM in assay [2] and 9.6 nM in assay [3].
The like results for `COc1cccc(F)c1CNc1ccc(-c2ccnc(C)c2C)c2nncn12` [Example 287, 8-(2,3-dimethylpyridin-4-yl)-N-(2-fluoro-6-methoxybenzyl)-[1,2,4]triazolo[4,3-a] pyridin-5-amine] were, in that order, 38.6 nM, 6.6 nM and 10.1 nM.
The like results for `COc1cccc(F)c1CNc1ccc(-c2cc(C)nn2C)c2nncn12` [Example 288, 8-(1,3-dimethyl-1H-pyrazol-5-yl)-N-(2-fluoro-6-methoxybenzyl)-[1,2,4]triazolo[4,3-a] pyridin-5-amine] were, in that order, 23.4 nM, 6.3 nM and 12.7 nM.
As for `COc1cccc(F)c1CNc1ccc(-c2cnn(C(C)C)c2C)c2nncn12` [Example 289, N-(2-fluoro-6-methoxybenzyl)-8-(1-isopropyl-5-methyl-1H-pyrazol-4-yl)-[1,2,4] triazolo[4,3-a]pyridin-5-amine], the IC50 in assay [1] is 128 nM; in assay [2], 30.3 nM; in assay [3] it was 28.4 nM.
The corresponding values for `COc1cccc(F)c1CNc1ccc(-c2cncnc2C(F)F)c2nncn12` [Example 290, 8-(4-(difluoromethyl)pyrimidin-5-yl)-N-(2-fluoro-6-methoxybenzyl)-[1,2,4] triazolo[4,3-a]pyridin-5-amine] are 33.2 nM, 4 nM and 30.7 nM.
The like results for `COc1cccc(F)c1CNc1ccc(-c2ccnn2C2CC2)c2nncn12` [Example 292, 8-(1-cyclopropyl-1H-pyrazol-5-yl)-N-(2-fluoro-6-methoxybenzyl)-[1,2,4] triazolo[4,3-a]pyridin-5-amine] were, in that order, 195 nM, 11.4 nM and 29 nM.
The corresponding values for `COc1cccc(F)c1CNc1ccc(-c2ccc(S(C)(=O)=O)nc2C(F)F)c2nncn12` [Example 293, 8-(2-(difluoromethyl)-6-(methylsulfonyl)pyridin-3-yl)-N-(2-fluoro-6-methoxybenzyl)-[1,2,4] triazolo[4,3-a]pyridin-5-amine] are 20.1 nM, 10.6 nM and 31.4 nM.
Turning to `COc1cccc(F)c1CNc1ccc(-c2cccnc2CF)c2nncn12` [Example 294, N-(2-fluoro-6-methoxybenzyl)-8-(2-(fluoromethyl)pyridin-3-yl)-[1,2,4] triazolo[4,3-a]pyridin-5-amine], the figures for the IC50 in assay [1], in assay [2] and in assay [3] were 116 nM, 9.4 nM and 23.9 nM, respectively.
The corresponding values for `COc1cc(F)cc(F)c1CNc1ccc(-c2ccc(C(=O)N(C)C)cc2C)c2nncn12` [Example 295, 4-(5-((2,4-difluoro-6-methoxybenzyl)amino)-[1,2,4]triazolo[4,3-a]pyridin-8-yl)-N,N,3-trimethyl benzamide] are 321 nM, 12.4 nM and 30.7 nM.
The corresponding values for `COc1cc(F)cc(F)c1CNc1ccc(-c2ccnn2C)c2nncn12` [Example 296, N-(2,4-difluoro-6-methoxybenzyl)-8-(1-methyl-1H-pyrazol-5-yl)-[1,2,4] triazolo[4,3-a]pyridin-5-amine] are 126 nM, 5.1 nM and 13 nM.
The like results for `COc1cc(F)cc(F)c1CNc1ccc(-c2ccncc2C)c2nncn12` [Example 297, N-(2,4-difluoro-6-methoxybenzyl)-8-(3-methylpyridin-4-yl)-[1,2,4]triazolo[4,3-a] pyridin-5-amine] were, in that order, 618 nM, 17.5 nM and 42.3 nM.
Consider `CCc1ncccc1-c1ccc(NCc2c(F)cc(F)cc2OC)n2cnnc12` [Example 298, N-(2,4-difluoro-6-methoxybenzyl)-8-(2-ethylpyridin-3-yl)-[1,2,4]triazolo[4,3-a] pyridin-5-amine], for which the values for the IC50 in assay [1], in assay [2] and in assay [3] were 362 nM, 86.9 nM and 67.9 nM, respectively.
As to `COc1cc(F)cc(F)c1CNc1ccc(-c2cncnc2C)c2nncn12` [Example 299, N-(2,4-difluoro-6-methoxybenzyl)-8-(4-methylpyrimidin-5-yl)-[1,2,4] triazolo[4,3-a]pyridin-5-amine], the IC50 is 66.6 nM in assay [1], 11.9 nM in assay [2] and 27.6 nM in assay [3].
In the case of `COc1cccc(F)c1CNc1ccc(-c2cnc(S(C)(=O)=O)cc2C(F)F)c2nncn12` [Example 301, 8-(4-(difluoromethyl)-6-(methylsulfonyl)pyridin-3-yl)-N-(2-fluoro-6-methoxybenzyl)-[1,2,4]triazolo[4,3-a] pyridin-5-amine], the 50% inhibitory concentration (IC50) in assay [1] worked out at 93.4 nM; in assay [2], 6.4 nM; in assay [3], 23.7 nM.
On to `COc1cc(F)cc(F)c1CNc1ccc(-c2cccnc2C(F)F)c2nncn12` [Example 302, N-(2,4-difluoro-6-methoxybenzyl)-8-(2-(difluoromethyl)pyridin-3-yl)-[1,2,4]triazolo[4,3-a]pyridin-5-amine], for which the IC50 in assay [1] is 39.3 nM; in assay [2] it was 9.8 nM; in assay [3], 13.3 nM.
